Source: US11198869B2, “Angelman syndrome antisense treatment” (The Texas A&M University System, priority 2017, dated 2021)

Test system: SNORD116
Test: SNORD116 steady state RNA (qRT-PCR) in GABAergic iPSC-derived neurons
Type: cell-based, human
Conditions: 10-point dose curve 1 nM-30 μM; 14 DIV to 20 DIV
From the text: The effects of ASO-4 and Topotecan were then examined on the SNORD116, IPW, SNORD115, and SNORD109A RNAs, which are located upstream of the ASO-4 target region (see FIG. 1A).
GABAergic and glutamatergic induced pluripotent stem cell (iPSC) derived neural precursor cells (NRC-100-010-001 and GNC-301-030-001, Cellular Dynamics International, Madison Wis.) were differentiated into neurons according to the manufactures protocol. Briefly, neural precursor cells were thawed and resuspended in chemically defined medium and added to sterile-culture plates coated with poly-D-lysine and laminin. The medium was replaced 24 hr after plating and then one-half of the medium was replaced every 3-5 days afterwards.
For cultured iPSC-derived neurons, RNA isolation and cDNA synthesis were performed using the Cell-to-CT kit (Thermo Fisher Scientific) in a lysate volume of 55 μl.
The steady state RNA levels of target transcripts were measured using TaqMan quantitative reverse-transcription PCR (qRT-PCR) assays. […] Cycling conditions were 2 minutes at 50° C., 10 minutes at 95° C., and 40 cycles of 15 seconds at 95° C. and 1 minute at 60° C., with readings taken at the 60° C. step of every cycle. […] Data was retrieved and analyzed with the BIORAD CFX Maestro software (Bio-Rad Laboratories). […]

With `CC[C@@]1(O)C(=O)OCc2c1cc1n(c2=O)Cc2cc3c(CN(C)C)c(O)ccc3nc2-1` [Topotecan, reference compound] the “effect on SNORD116 RNA levels (in words)” value was “significant effect on SNORD116, IPW, SNORD115, and SNORD109A/B RNA levels that was dose dependent”.
